Results from the supplement of paper PMC10307832.

Tests used:
Test in all cases: relative viability (nuclei count vs DMSO), 5 days (fraction); higher = more cells survive
LCLC-103H = system: LCLC-103H
Procedure, shortened: (§1)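 Relative viability divides the nuclei count in treated wells by that in vehicle wells. Lung cancer cell lines were seeded in 1536-well plates, dosed by pin tool the next day, and fixed and stained after 5 days in one step with final 0.05% Triton X-100, 1% formaldehyde and 1 ug/ml Hoechst. Dosing was a single drug or a fixed anchor-drug dose plus five library-drug doses (not always all listed) in √10 steps, and values are medians of duplicate plates imaged at 4×.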

NCI-H1666 = system: NCI-H1666
Procedure, shortened: as §1

LOU-NH91 = system: LOU-NH91
Procedure, shortened: as §1

NCI-H647 = system: NCI-H647
Procedure, shortened: as §1

PC-14 = system: PC-14
Procedure, shortened: as §1

LXF-289 = system: LXF-289
Procedure, shortened: as §1

HCC-827 = system: HCC-827
Procedure, shortened: as §1

LK-2 = system: LK-2
Procedure, shortened: as §1

NCI-H727 = system: NCI-H727
Procedure, shortened: as §1

BEN = system: BEN
Procedure, shortened: as §1

NCI-H2170 = system: NCI-H2170
Procedure, shortened: as §1

NCI-H661 = system: NCI-H661
Procedure, shortened: as §1

NCI-H1993 = system: NCI-H1993
Procedure, shortened: as §1

SK-MES-1 = system: SK-MES-1
Procedure, shortened: as §1

HOP-62 = system: HOP-62
Procedure, shortened: as §1

NCI-H441 = system: NCI-H441
Procedure, shortened: as §1

RERF-LC-KJ = system: RERF-LC-KJ
Procedure, shortened: as §1

NCI-H1437 = system: NCI-H1437
Procedure, shortened: as §1

EKVX = system: EKVX
Procedure, shortened: as §1

ChaGo-K-1 = system: ChaGo-K-1
Procedure, shortened: as §1

NCI-H2126 = system: NCI-H2126
Procedure, shortened: as §1

NCI-H1944 = system: NCI-H1944
Procedure, shortened: as §1

NCI-H1355 = system: NCI-H1355
Procedure, shortened: as §1

Cc1csc(=NC2CCCCC2)n1/N=C/c1ccc(O)c(O)c1O [MIM1] + C[C@@H](Oc1cc(-c2cnn(C3CCNCC3)c2)cnc1N)c1c(Cl)ccc(F)c1Cl [Crizotinib] (partner 1 µM)
relative viability (LCLC-103H; first compound 0.2 µM): 1
relative viability (LCLC-103H; first compound 0.6325 µM): 1
relative viability (LCLC-103H; first compound 2 µM): 1.1
relative viability (LCLC-103H; first compound 6.325 µM): 0.909
relative viability (LCLC-103H; first compound 20 µM): 0.985
relative viability (NCI-H1666; first compound 0.2 µM): 0.926
relative viability (NCI-H1666; first compound 0.6325 µM): 0.92
relative viability (NCI-H1666; first compound 2 µM): 0.958
relative viability (NCI-H1666; first compound 6.325 µM): 0.663
relative viability (NCI-H1666; first compound 20 µM): 0.238
relative viability (LOU-NH91; first compound 0.2 µM): 0.748
relative viability (LOU-NH91; first compound 0.6325 µM): 0.728
relative viability (LOU-NH91; first compound 2 µM): 0.683
relative viability (LOU-NH91; first compound 6.325 µM): 0.675
relative viability (LOU-NH91; first compound 20 µM): 0.392
relative viability (NCI-H647; first compound 0.2 µM): 1.05
relative viability (NCI-H647; first compound 0.6325 µM): 1.17
relative viability (NCI-H647; first compound 2 µM): 1.02
relative viability (NCI-H647; first compound 6.325 µM): 0.719
relative viability (NCI-H647; first compound 20 µM): 0.354
relative viability (PC-14; first compound 0.2 µM): 0.854
relative viability (PC-14; first compound 0.6325 µM): 0.839
relative viability (PC-14; first compound 2 µM): 0.873
relative viability (PC-14; first compound 6.325 µM): 0.728
relative viability (PC-14; first compound 20 µM): 0.254
relative viability (LXF-289; first compound 0.2 µM): 0.806
relative viability (LXF-289; first compound 0.6325 µM): 0.732
relative viability (LXF-289; first compound 2 µM): 0.833
relative viability (LXF-289; first compound 6.325 µM): 0.655
relative viability (LXF-289; first compound 20 µM): 0.388
relative viability (HCC-827; first compound 0.2 µM): 0.971
relative viability (HCC-827; first compound 0.6325 µM): 0.919
relative viability (HCC-827; first compound 2 µM): 0.927
relative viability (HCC-827; first compound 6.325 µM): 0.307
relative viability (HCC-827; first compound 20 µM): 0.366
relative viability (LK-2; first compound 0.2 µM): 0.234
relative viability (LK-2; first compound 0.6325 µM): 0.233
relative viability (LK-2; first compound 6.325 µM): 0.227
relative viability (LK-2; first compound 20 µM): 0.229
relative viability (NCI-H727; first compound 0.2 µM): 0.836
relative viability (NCI-H727; first compound 0.6325 µM): 0.81
relative viability (NCI-H727; first compound 2 µM): 0.795
relative viability (NCI-H727; first compound 6.325 µM): 0.534
relative viability (NCI-H727; first compound 20 µM): 0.349
relative viability (BEN; first compound 0.2 µM): 0.893
relative viability (BEN; first compound 0.6325 µM): 0.72
relative viability (BEN; first compound 2 µM): 0.982
relative viability (BEN; first compound 6.325 µM): 0.801
relative viability (BEN; first compound 20 µM): 0.317
relative viability (NCI-H2170; first compound 0.2 µM): 1.15
relative viability (NCI-H2170; first compound 0.6325 µM): 1.07
relative viability (NCI-H2170; first compound 2 µM): 1.13
relative viability (NCI-H2170; first compound 6.325 µM): 0.652
relative viability (NCI-H2170; first compound 20 µM): 0.302
relative viability (NCI-H661; first compound 0.2 µM): 0.973
relative viability (NCI-H661; first compound 0.6325 µM): 0.953
relative viability (NCI-H661; first compound 2 µM): 0.875
relative viability (NCI-H661; first compound 6.325 µM): 0.677
relative viability (NCI-H661; first compound 20 µM): 0.531
relative viability (NCI-H1993; first compound 0.2 µM): 0.886
relative viability (NCI-H1993; first compound 0.6325 µM): 0.805
relative viability (NCI-H1993; first compound 2 µM): 0.827
relative viability (NCI-H1993; first compound 6.325 µM): 0.608
relative viability (NCI-H1993; first compound 20 µM): 0.594
relative viability (SK-MES-1; first compound 0.2 µM): 0.953
relative viability (SK-MES-1; first compound 0.6325 µM): 0.937
relative viability (SK-MES-1; first compound 2 µM): 0.959
relative viability (SK-MES-1; first compound 6.325 µM): 0.799
relative viability (SK-MES-1; first compound 20 µM): 0.732
relative viability (HOP-62; first compound 0.2 µM): 0.927
relative viability (HOP-62; first compound 0.6325 µM): 0.914
relative viability (HOP-62; first compound 2 µM): 0.642
relative viability (HOP-62; first compound 6.325 µM): 0.888
relative viability (HOP-62; first compound 20 µM): 0.0803
relative viability (NCI-H441; first compound 0.2 µM): 0.835
relative viability (NCI-H441; first compound 0.6325 µM): 0.692
relative viability (NCI-H441; first compound 2 µM): 0.774
relative viability (NCI-H441; first compound 6.325 µM): 0.433
relative viability (NCI-H441; first compound 20 µM): 0.222
relative viability (RERF-LC-KJ; first compound 0.2 µM): 0.787
relative viability (RERF-LC-KJ; first compound 0.6325 µM): 0.836
relative viability (RERF-LC-KJ; first compound 2 µM): 0.708
relative viability (RERF-LC-KJ; first compound 6.325 µM): 0.499
relative viability (RERF-LC-KJ; first compound 20 µM): 0.267
relative viability (NCI-H1437; first compound 0.2 µM): 0.888
relative viability (NCI-H1437; first compound 0.6325 µM): 0.839
relative viability (NCI-H1437; first compound 2 µM): 0.864
relative viability (NCI-H1437; first compound 6.325 µM): 0.559
relative viability (NCI-H1437; first compound 20 µM): 0.631
relative viability (EKVX; first compound 0.2 µM): 0.989
relative viability (EKVX; first compound 0.6325 µM): 0.887
relative viability (EKVX; first compound 2 µM): 0.788
relative viability (EKVX; first compound 6.325 µM): 0.527
relative viability (EKVX; first compound 20 µM): 0.757
relative viability (ChaGo-K-1; first compound 0.2 µM): 1.07
relative viability (ChaGo-K-1; first compound 0.6325 µM): 1.13
relative viability (ChaGo-K-1; first compound 2 µM): 0.953
relative viability (ChaGo-K-1; first compound 6.325 µM): 0.835
relative viability (ChaGo-K-1; first compound 20 µM): 0.285
relative viability (NCI-H2126; first compound 0.2 µM): 1.05
relative viability (NCI-H2126; first compound 0.6325 µM): 1.05
relative viability (NCI-H2126; first compound 2 µM): 1.03
relative viability (NCI-H2126; first compound 6.325 µM): 0.963
relative viability (NCI-H2126; first compound 20 µM): 0.659
relative viability (NCI-H1944; first compound 0.2 µM): 1.11
relative viability (NCI-H1944; first compound 0.6325 µM): 1.09
relative viability (NCI-H1944; first compound 2 µM): 0.754
relative viability (NCI-H1944; first compound 6.325 µM): 0.811
relative viability (NCI-H1944; first compound 20 µM): 0.323
relative viability (NCI-H1355; first compound 0.2 µM): 1.04
relative viability (NCI-H1355; first compound 0.6325 µM): 1.16
relative viability (NCI-H1355; first compound 2 µM): 1
relative viability (NCI-H1355; first compound 6.325 µM): 0.94
relative viability (NCI-H1355; first compound 20 µM): 0.516
